{
  "source": "patent EP0555681A1",
  "about": "“Use of a combination of potassium channel activators and sulfhydryl containing compounds for the manufacture of a medicament for the treatment of ischemia and myocarolial infarct” (E.R. SQUIBB & SONS, INC., priority 1992, dated 1993)",
  "parameters_in_all_cases": "species or system Male Sprague-Dawley rats",
  "key": {"isolated rat hearts [1]": {"test_system": "isolated rat hearts", "experiment": "Time to contracture during global ischemia in isolated rat hearts, with isobolographic analysis of the combination", "conditions": "read-out: EC₅₀ for percentage change in time to contracture", "experimental": "(§1) anesthetized using 100 mg/kg sodium pentobarbital (i.p.). They were intubated and then treated with i.v. heparin (1000 U/kg). While mechanically ventilated, hearts were perfused in situ via retrograde cannulation of the aorta. The hearts were then excised and quickly moved to a Langendorff apparatus where they were perfused with Krebs-Henseleit bicarbonate buffer (112 mM sodium chloride, 25 mM sodium bicarbonate, 5 mM potassium chloride, 1.2 mM magnesium sulfate, 1 mM potassium diphosphate, 1.25 mM calcium chloride, 11.5 mM glucose and 2mM pyruvate bubbled with 95% oxygen - 5% carbon dioxide) at a constant perfusion pressure (75 mm Hg). A water-filled latex balloon, attached to a metal cannula, was inserted into the left ventricle and connected to a Statham pressure transducer for measurement of left ventricular pressure. The hearts were allowed to equilibrate for 15 minutes, at which time end diastolic pressure (EDP) was adjusted to 5 mm Hg and the balloon pressure was maintained for the duration of the experiment. Pre-ischemia or pre-drug function, heart rate and coronary flow (extracorporeal electromagnetic flow probe, Carolina Medical Electronics, King, N.C.) were then measured. Cardiac function was determined using double product of heart rate (HR) X left ventricular developed pressure (LVDP) divided by 1000. Cardiac temperature was maintained throughout the experiment by submerging the hearts in a heated chamber filled with 37°C buffer.\nAll hearts were retreated with vehicle or drug for 10 minutes before the onset of ischemia. All drugs were given only before ischemia. The hearts were subjected to 25 minutes of global ischemia and 30 minutes of reperfusion. At the end of the experiment, EDP and LDH release were measured and used as an index of severity of ischemia.\nThe effect of the combination of a potassium channel activator and a sulfhydryl containing compound was determined using a technique known as isobolographic analysis (R. J. Tallarida et al, \"Minireview-Satistical Analysis of Drug-Drug and Site-Site Interactions with Isobolograms\", Life Sciences, 45:947-961, 1989). This technique is commonly used to investigate the interaction between drugs.\nSeveral specific concentration ratios (3:1, 12:1 and 30:1) of cromakalim to zofenopril respectively were tested and the effects of the combination determined. The concentration response curves for cromakalim and zofenopril were expressed as percentage increase in time to contracture from control. Time to contracture was measured as the time during ischemia for end diastolic pressure to increase by 5 mm Hg.\nEC₅₀ for percentage change in time to contracture for cromakalim and zofenopril given alone or in the concentration ratios indicated were calculated."}, "isolated rat hearts [2]": {"test_system": "isolated rat hearts", "experiment": "Global ischemia and reperfusion in isolated perfused (Langendorff) rat hearts: EDP, LDH release, double product", "experimental": "as §1, with “The hearts were then excised and quickly moved to a Langendorff apparatus where they were perfused with Krebs-Henseleit bicarbonate buffer (112 mM sodium chloride, 25 mM sodium bicarbonate, 5 mM potassium chloride, 1.2 mM magnesium sulfate, 1 mM potassium diphosphate, 1.25 mM calcium chloride, 11.5 mM glucose and 2mM pyruvate bubbled with 95% oxygen - 5% carbon dioxide) at a constant perfusion pressure (75 mm Hg).” left out, “buffer. All hearts were retreated with vehicle or drug for 10 minutes before the onset of ischemia. All drugs were given only before ischemia. The hearts were subjected to 25 minutes of global ischemia and 30 minutes of reperfusion. At the end of the experiment, EDP and LDH release were measured and used as an index of severity of ischemia.” for “buffer.”"}, "isolated rat hearts [3]": {"test_system": "isolated rat hearts", "experiment": "Global ischemia and reperfusion in isolated perfused (Langendorff) rat hearts: EDP, LDH release, double product", "conditions": "100 or 300 µM N-acetylcysteine; 30 minutes into reperfusion following 35 minutes of global ischemia (Fig. 3a, 3b)"}, "[4]": {"conditions": "given alone, time during ischemia for EDP to increase by 5 mm Hg"}, "[5]": {"conditions": "blocker (1 µM glyburide or 100 µM sodium 5-hydroxydecanoate) given with zofenopril prodrug (Fig. 1a)"}, "[6]": {"conditions": "blocker (1 µM glyburide or 100 µM sodium 5-hydroxydecanoate) given with zofenopril prodrug (Fig. 1b)"}},
  "note": "Read-outs that look alike come from different tables or passages of the source.",
  "data": [
    {"smiles": "CC1(C)Oc2ccc(C#N)cc2C(N2CCCC2=O)C1O", "note": "(racemic) [Cromakalim, (±)-6-cyano-3,4-dihydro-2,2-dimethyl-trans-4-(2-oxo-1-pyrrolidyl)-2H-benzo[6]-pyran-3-ol]", "values": [
      {"measurement": "EC50", "setting": "isolated rat hearts [1]; concentration ratio 3:1 cromakalim to zofenopril, cromakalim component", "value": 5.15, "unit": "µM"},
      {"measurement": "EC50", "setting": "isolated rat hearts [1]; concentration ratio 12:1 cromakalim to zofenopril, cromakalim component", "value": 5.96, "unit": "µM"},
      {"measurement": "EC50", "setting": "isolated rat hearts [1]; concentration ratio 30:1 cromakalim to zofenopril, cromakalim component", "value": 9.3, "unit": "µM"},
      {"measurement": "EC50", "setting": "isolated rat hearts [1]; [4]", "value": 39.7, "unit": "µM"}
    ]},
    {"smiles": "COc1ccc(Cl)cc1C(=O)NCCc1ccc(S(=O)(=O)NC(=O)NC2CCCCC2)cc1", "note": "[Glyburide]", "values": [
      {"measurement": "reversal of the cardioprotective effect of zofenopril-SH", "setting": "isolated rat hearts [2]; 1 µM glyburide with 400 µM zofenopril-SH (Fig. 2a, 2b)", "value": "reverses the cardioprotective effect"},
      {"measurement": "reversal of the protective effect of N-acetylcysteine", "setting": "isolated rat hearts [2]; 1 µM glyburide with N-acetylcysteine (Fig. 3a, 3b)", "value": "reversed"},
      {"measurement": "end diastolic pressure (EDP)", "setting": "isolated rat hearts [2]; [5]", "value": "increase"},
      {"measurement": "cumulative LDH release", "setting": "isolated rat hearts [2]; [6]", "value": "increase"},
      {"measurement": "reversal of the effects of penicillamine on double product and LDH release", "setting": "isolated rat hearts [2]; glyburide with penicillamine (Fig. 4a, 4b)", "value": "partially reversed"}
    ]},
    {"smiles": "CC(=O)N[C@@H](CS)C(=O)O", "note": "[N-acetyl-cysteine, N-acetylcysteine]", "values": [
      {"measurement": "protection of ischemic cardiac tissue (EDP and cumulative LDH release)", "setting": "isolated rat hearts [3]", "value": "protected ischemic cardiac tissue"}
    ]},
    {"smiles": "CC(C)(S)[C@@H](N)C(=O)O", "note": "[Penicillamine]", "values": [
      {"measurement": "protection of cardiac tissue", "setting": "isolated rat hearts [2]; penicillamine (Fig. 4a, 4b)", "value": "protects cardiac tissue"},
      {"measurement": "LDH release", "setting": "isolated rat hearts [2]; penicillamine (Fig. 4b)", "value": "significantly reduced"},
      {"measurement": "reperfusion double product", "setting": "isolated rat hearts [2]; penicillamine, HR x LVDP divided by 1000 (Fig. 4a)", "value": "significantly improved"}
    ]},
    {"smiles": "C[C@H](CSC(=O)c1ccccc1)C(=O)N1C[C@@H](Sc2ccccc2)C[C@H]1C(=O)O", "note": "[Zofenopril]", "values": [
      {"measurement": "EC50", "setting": "isolated rat hearts [1]; concentration ratio 3:1 cromakalim to zofenopril, zofenopril component", "value": 0.128, "unit": "µM"},
      {"measurement": "EC50", "setting": "isolated rat hearts [1]; concentration ratio 12:1 cromakalim to zofenopril, zofenopril component", "value": 0.48, "unit": "µM"},
      {"measurement": "EC50", "setting": "isolated rat hearts [1]; concentration ratio 30:1 cromakalim to zofenopril, zofenopril component", "value": 0.29, "unit": "µM"},
      {"measurement": "EC50", "setting": "isolated rat hearts [1]; [4]", "value": 75, "unit": "µM"},
      {"measurement": "end diastolic pressure (EDP)", "setting": "isolated rat hearts [2]; 100 µM zofenopril, 30 minutes into reperfusion following 25 minutes of global ischemia (Fig. 1a)", "value": "significantly reduced"},
      {"measurement": "cumulative LDH release", "setting": "isolated rat hearts [2]; 100 µM zofenopril, 30 minutes into reperfusion following 25 minutes of global ischemia (Fig. 1b)", "value": "significantly reduced"}
    ]},
    {"smiles": "C[C@H](CS)C(=O)N1C[C@@H](Sc2ccccc2)C[C@H]1C(=O)O", "note": "[free-SH form of zofenopril]", "values": [
      {"measurement": "cardioprotective effect (EDP and cumulative LDH release)", "setting": "isolated rat hearts [2]; 400 µM zofenopril-SH, 30 minutes into reperfusion following 25 minutes of global ischemia (Fig. 2a, 2b)", "value": "cardioprotective effect"}
    ]},
    {"smiles": "CCCCCC(O)CCCC(=O)[O-].[Na+]", "note": "(stereo not shown) [sodium-5-hydroxy-decanoate, sodium 5-hydroxydecanoate]", "values": [
      {"measurement": "end diastolic pressure (EDP)", "setting": "isolated rat hearts [2]; [5]", "value": "increase"},
      {"measurement": "cumulative LDH release", "setting": "isolated rat hearts [2]; [6]", "value": "increase"}
    ]}
  ]
}
